PubChem BioAssay (NCI)
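48-hour exposure; five concentrations; linearly interpolated endpoints. At the GI50, growth is halved. The concentration for full growth arrest is given as TGI.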

Tests used:
Test in all cases: DTP human tumour cell line panel, 48 h
MDA-MB-435 = system: MDA-MB-435
SF-539 CNS = system: SF-539 CNS
HCT-116 colon = system: HCT-116 colon
OVCAR-5 ovarian = system: OVCAR-5 ovarian
UACC-62 melanoma = system: UACC-62 melanoma
OVCAR-3 ovarian = system: OVCAR-3 ovarian
SK-MEL-2 melanoma = system: SK-MEL-2 melanoma
COLO 205 colon = system: COLO 205 colon
EKVX NSCLC = system: EKVX NSCLC
SF-268 CNS = system: SF-268 CNS
BT-549 breast = system: BT-549 breast
NCI-H23 lung = system: NCI-H23 lung
IGROV1 ovarian = system: IGROV1 ovarian
HOP-62 NSCLC = system: HOP-62 NSCLC
A498 renal = system: A498 renal
ACHN renal = system: ACHN renal
RPMI-8226 leukemia = system: RPMI-8226 leukemia
A549 NSCLC = system: A549 NSCLC
MCF7 breast = system: MCF7 breast
HCC-2998 colon = system: HCC-2998 colon
K-562 leukemia = system: K-562 leukemia
NCI-H522 lung = system: NCI-H522 lung
CCRF-CEM leukemia = system: CCRF-CEM leukemia
T-47D breast = system: T-47D breast
SK-OV-3 ovarian = system: SK-OV-3 ovarian
CAKI-1 renal = system: CAKI-1 renal
SNB-75 CNS = system: SNB-75 CNS
LOX IMVI melanoma = system: LOX IMVI melanoma
HL-60(TB) leukemia = system: HL-60(TB) leukemia
TK-10 renal = system: TK-10 renal
HCT-15 colon = system: HCT-15 colon
SW-620 colon = system: SW-620 colon
MALME-3M melanoma = system: MALME-3M melanoma
MDA-N = system: MDA-N
KM12 colon = system: KM12 colon
SK-MEL-5 melanoma = system: SK-MEL-5 melanoma
NCI/ADR-RES ovarian = system: NCI/ADR-RES ovarian
HT29 colon = system: HT29 colon
NCI-H460 lung = system: NCI-H460 lung
SN12C renal = system: SN12C renal
MDA-MB-231 breast = system: MDA-MB-231 breast
UO-31 renal = system: UO-31 renal
DU-145 prostate = system: DU-145 prostate
OVCAR-8 ovarian = system: OVCAR-8 ovarian
786-0 renal = system: 786-0 renal
SNB-19 CNS = system: SNB-19 CNS
RXF 393 renal = system: RXF 393 renal
M14 melanoma = system: M14 melanoma
SF-295 CNS = system: SF-295 CNS
U251 CNS = system: U251 CNS
PC-3 prostate = system: PC-3 prostate
HOP-92 NSCLC = system: HOP-92 NSCLC
OVCAR-4 ovarian = system: OVCAR-4 ovarian
NCI-H226 lung = system: NCI-H226 lung
UACC-257 melanoma = system: UACC-257 melanoma
SK-MEL-28 melanoma = system: SK-MEL-28 melanoma
SR leukemia = system: SR leukemia
MOLT-4 leukemia = system: MOLT-4 leukemia
HS 578T breast = system: HS 578T breast

SMILES: COc1ccc2nc3cccc([N+](=O)[O-])c3c(NCCNCCO)c2c1
- GI50 (MDA-MB-435): 25.6 nM
- TGI (MDA-MB-435): 90.3 nM
- GI50 (SF-539 CNS): 43.3 nM
- TGI (SF-539 CNS): 186 nM
- GI50 (HCT-116 colon): 19.6 nM
- TGI (HCT-116 colon): 753 nM
- GI50 (OVCAR-5 ovarian): 32.7 nM
- TGI (OVCAR-5 ovarian): 185 nM
- GI50 (UACC-62 melanoma): 16.2 nM
- TGI (UACC-62 melanoma): 39.7 nM
- GI50 (OVCAR-3 ovarian): 26.5 nM
- TGI (OVCAR-3 ovarian): 66.7 nM
- GI50 (SK-MEL-2 melanoma): 16.7 nM
- TGI (SK-MEL-2 melanoma): 34.4 nM
- GI50 (COLO 205 colon): 13.7 nM
- TGI (COLO 205 colon): 54.5 nM
- GI50 (EKVX NSCLC): 104 nM
- TGI (EKVX NSCLC): 426 nM
- GI50 (SF-268 CNS): 18.4 nM
- TGI (SF-268 CNS): 92.5 nM
- GI50 (BT-549 breast): 51 nM
- TGI (BT-549 breast): 173 nM
- GI50 (NCI-H23 lung): 104 nM
- TGI (NCI-H23 lung): 2700 nM
- GI50 (IGROV1 ovarian): 17.3 nM
- TGI (IGROV1 ovarian): 71.7 nM
- GI50 (HOP-62 NSCLC): 35.2 nM
- TGI (HOP-62 NSCLC): 169 nM
- GI50 (A498 renal): 26.2 nM
- TGI (A498 renal): 70.9 nM
- GI50 (ACHN renal): 15.9 nM
- TGI (ACHN renal): 70.1 nM
- GI50 (RPMI-8226 leukemia): 19.8 nM
- TGI (RPMI-8226 leukemia): 111 nM
- GI50 (A549 NSCLC): 27.4 nM
- TGI (A549 NSCLC): 119 nM
- GI50 (MCF7 breast): 10.2 nM
- TGI (MCF7 breast): 100 nM
- GI50 (HCC-2998 colon): 41.7 nM
- TGI (HCC-2998 colon): 206 nM
- GI50 (K-562 leukemia): 15.3 nM
- TGI (K-562 leukemia): 121 nM
- TGI (NCI-H522 lung): 14.6 nM
- GI50 (CCRF-CEM leukemia): 24 nM
- TGI (CCRF-CEM leukemia): 173 nM
- GI50 (T-47D breast): 81.3 nM
- TGI (T-47D breast): 619 nM
- GI50 (SK-OV-3 ovarian): 45.9 nM
- TGI (SK-OV-3 ovarian): 388 nM
- GI50 (CAKI-1 renal): 39.6 nM
- TGI (CAKI-1 renal): 502 nM
- GI50 (SNB-75 CNS): 36.7 nM
- TGI (SNB-75 CNS): 151 nM
- GI50 (LOX IMVI melanoma): 18.4 nM
- TGI (LOX IMVI melanoma): 72.1 nM
- GI50 (HL-60(TB) leukemia): 21.2 nM
- TGI (HL-60(TB) leukemia): 4140 nM
- GI50 (TK-10 renal): 29.1 nM
- TGI (TK-10 renal): 272 nM
- GI50 (HCT-15 colon): 206 nM
- GI50 (SW-620 colon): 19.8 nM
- TGI (SW-620 colon): 610 nM
- GI50 (MALME-3M melanoma): 25 nM
- TGI (MALME-3M melanoma): 124 nM
- GI50 (MDA-N): 37 nM
- TGI (MDA-N): 156 nM
- GI50 (KM12 colon): 60 nM
- TGI (KM12 colon): 250 nM
- GI50 (SK-MEL-5 melanoma): 11.3 nM
- TGI (SK-MEL-5 melanoma): 25.8 nM
- GI50 (NCI/ADR-RES ovarian): 660 nM
- TGI (NCI/ADR-RES ovarian): 6700 nM
- GI50 (HT29 colon): 12 nM
- TGI (HT29 colon): 99.1 nM
- GI50 (NCI-H460 lung): 11.4 nM
- TGI (NCI-H460 lung): 102 nM
- GI50 (SN12C renal): 46.8 nM
- TGI (SN12C renal): 306 nM
- GI50 (MDA-MB-231 breast): 411 nM
- TGI (MDA-MB-231 breast): 8250 nM
- GI50 (UO-31 renal): 106 nM
- TGI (UO-31 renal): 336 nM
- GI50 (DU-145 prostate): 10.4 nM
- TGI (DU-145 prostate): 746 nM
- GI50 (OVCAR-8 ovarian): 13 nM
- TGI (OVCAR-8 ovarian): 151 nM
- GI50 (786-0 renal): 21.2 nM
- TGI (786-0 renal): 102 nM
- GI50 (SNB-19 CNS): 130 nM
- TGI (SNB-19 CNS): 636 nM
- GI50 (RXF 393 renal): 18.7 nM
- TGI (RXF 393 renal): 47.4 nM
- GI50 (M14 melanoma): 19.8 nM
- TGI (M14 melanoma): 53.4 nM
- GI50 (SF-295 CNS): 23.8 nM
- TGI (SF-295 CNS): 188 nM
- GI50 (U251 CNS): 22.6 nM
- TGI (U251 CNS): 155 nM
- TGI (PC-3 prostate): 130 nM
- GI50 (HOP-92 NSCLC): 23 nM
- TGI (HOP-92 NSCLC): 64.9 nM
- GI50 (OVCAR-4 ovarian): 19.9 nM
- TGI (OVCAR-4 ovarian): 51.5 nM
- GI50 (NCI-H226 lung): 52.2 nM
- TGI (NCI-H226 lung): 340 nM
- GI50 (UACC-257 melanoma): 51.8 nM
- TGI (UACC-257 melanoma): 189 nM
- GI50 (SK-MEL-28 melanoma): 102 nM
- TGI (SK-MEL-28 melanoma): 352 nM
- GI50 (SR leukemia): 16.7 nM
- TGI (SR leukemia): 3280 nM
- GI50 (MOLT-4 leukemia): 20.7 nM
- TGI (MOLT-4 leukemia): 229 nM
- GI50 (HS 578T breast): 50.1 nM
- TGI (HS 578T breast): 361 nM

SMILES: CC(C)CSCC1OC(n2cnc3c(N)nccc32)C(O)C1O (centres undefined)
- TGI (MDA-MB-435): > 100000 nM
- TGI (SF-539 CNS): > 100000 nM
- TGI (HCT-116 colon): > 100000 nM
- TGI (OVCAR-5 ovarian): > 100000 nM
- TGI (UACC-62 melanoma): > 100000 nM
- TGI (OVCAR-3 ovarian): > 100000 nM
- TGI (SK-MEL-2 melanoma): > 100000 nM
- TGI (COLO 205 colon): > 100000 nM
- TGI (EKVX NSCLC): > 100000 nM
- TGI (SF-268 CNS): > 100000 nM
- TGI (BT-549 breast): > 100000 nM
- TGI (NCI-H23 lung): > 100000 nM
- TGI (IGROV1 ovarian): > 100000 nM
- TGI (HOP-62 NSCLC): > 100000 nM
- TGI (A498 renal): > 100000 nM
- TGI (ACHN renal): > 100000 nM
- TGI (RPMI-8226 leukemia): > 100000 nM
- TGI (A549 NSCLC): > 100000 nM
- TGI (MCF7 breast): > 100000 nM
- TGI (HCC-2998 colon): > 100000 nM
- TGI (K-562 leukemia): > 100000 nM
- TGI (NCI-H522 lung): > 100000 nM
- TGI (CCRF-CEM leukemia): > 100000 nM
- TGI (T-47D breast): > 100000 nM
- TGI (SK-OV-3 ovarian): > 100000 nM
- TGI (CAKI-1 renal): > 100000 nM
- TGI (SNB-75 CNS): > 100000 nM
- TGI (LOX IMVI melanoma): > 100000 nM
- TGI (HL-60(TB) leukemia): > 100000 nM
- TGI (TK-10 renal): > 100000 nM
- TGI (HCT-15 colon): > 100000 nM
- TGI (SW-620 colon): > 100000 nM
- TGI (MALME-3M melanoma): > 100000 nM
- TGI (MDA-N): > 100000 nM
- TGI (KM12 colon): > 100000 nM
- TGI (SK-MEL-5 melanoma): > 100000 nM
- TGI (NCI/ADR-RES ovarian): > 100000 nM
- TGI (HT29 colon): > 100000 nM
- TGI (NCI-H460 lung): > 100000 nM
- TGI (SN12C renal): > 100000 nM
- TGI (MDA-MB-231 breast): > 100000 nM
- TGI (UO-31 renal): > 100000 nM
- TGI (DU-145 prostate): > 100000 nM
- TGI (OVCAR-8 ovarian): > 100000 nM
- TGI (786-0 renal): > 100000 nM
- TGI (SNB-19 CNS): > 100000 nM
- TGI (RXF 393 renal): > 100000 nM
- TGI (M14 melanoma): > 100000 nM
- TGI (SF-295 CNS): > 100000 nM
- TGI (U251 CNS): > 100000 nM
- TGI (PC-3 prostate): > 100000 nM
- TGI (HOP-92 NSCLC): > 100000 nM
- TGI (OVCAR-4 ovarian): > 100000 nM
- TGI (NCI-H226 lung): > 100000 nM
- TGI (UACC-257 melanoma): > 100000 nM
- TGI (SK-MEL-28 melanoma): > 100000 nM
- TGI (SR leukemia): > 100000 nM
- TGI (MOLT-4 leukemia): > 100000 nM
- TGI (HS 578T breast): > 100000 nM
